Columns and labels:
LPA1 = LPA1 (Homo sapiens, UniProt Q92633); assay: LPA1 Migration Assay (Oris); format: cell-based; parameters: host or cells: primary fibroblasts (lung, dermal), HFL-1, 3T3 and CHO cells expressing LPA1R; details: read-out: Cell Migration EC50
Text: LPA1 Migration Assay Migration of primary fibroblasts (including lung, dermal), HFL-1, 3T3 and CHO cells expressing LPA1R were monitored using the Oris™ assay (Platypus Technologies, Madison, Wis.). These cells were dye (Cell Tracker Green™) loaded and serum starved for 12-24 hrs. In response to chemoattractants such as LPA and serum, the cells migrated inward in to the exclusion (detection) zone. After fixing, fluorescent cells in the detection zone were counted using a high content reader. The ability of LPA1 antagonists to inhibit cell migration is quantified by plotting cell number vs. compound concentration and curve fitting the resulting dose-response curve to a 4 parameter logistic function.

LPA/S1P GPCR of interest = biological target: T1, LPA/S1P GPCR of interest (Homo sapiens, UniProt Q92633); assay: Beta-Arrestin based assay (PathHunter); format: cell-based
T1 construct: host or cells: CHO
In short: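 EA Parental CHO cells (DiscoverX) were transfected with FuGENE (Roche) using CMV promoter-driven DNA constructs encoding the LPA/S1P GPCR of interest fused to a ProLink tag. Beta-arrestin recruitment in agonist mode was assessed 24-48 hrs later with PathHunter kits. Tests ran in quadruplicate in white 384 well plates, and end point luminescence was fit to a 4 parameter logistic function.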

LPA1, sequence (Q92633 whole entry): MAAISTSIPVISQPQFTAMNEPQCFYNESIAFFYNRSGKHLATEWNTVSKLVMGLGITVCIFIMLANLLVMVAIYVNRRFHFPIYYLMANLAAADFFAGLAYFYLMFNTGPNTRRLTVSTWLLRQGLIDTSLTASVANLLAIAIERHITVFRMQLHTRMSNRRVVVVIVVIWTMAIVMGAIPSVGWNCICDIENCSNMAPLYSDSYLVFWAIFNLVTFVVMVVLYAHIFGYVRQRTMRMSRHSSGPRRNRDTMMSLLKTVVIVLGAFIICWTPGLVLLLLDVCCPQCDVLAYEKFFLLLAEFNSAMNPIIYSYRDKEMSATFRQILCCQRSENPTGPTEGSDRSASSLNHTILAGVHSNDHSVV
T1 sequence (Q92633 whole entry): as above

Structure (SMILES) | EC50 (LPA1) [nM] | EC50 (LPA/S1P GPCR of interest) [nM]
Cc1nnn(-c2ccc(-c3cc(F)c(Oc4cccnc4C(=O)O)c(F)c3)cc2)c1NC(=O)O[C@H](C)c1ccccc1 [IT437] | 50 to 500 | < 50
C[C@@H](OC(=O)Nc1c(-c2cc3sc(-c4cc(Cl)c(CC(=O)O)cc4F)cc3s2)cnn1C)c1ccccc1 [IT187] | > 500 | > 500
Cc1nnn(-c2ccc(-c3ccc(Oc4cccc(F)c4C(=O)O)cc3)cc2)c1NC(=O)O[C@H](C)c1ccccc1 [IT457] | > 500 | 50 to 500
Cc1nsc(-c2cc3sc(-c4ccc(CC(=O)O)s4)cc3s2)c1NC(=O)O[C@H](C)c1ccccc1 [IT148] | > 500 | > 500
Cc1noc(-c2ccc(-c3ccc(S(=O)(=O)N4CCCC4)cc3)cc2)c1NC(=O)O[C@H](C)c1ccccc1 [IT153] | > 500 | > 500
Cc1nsc(-c2ccc(-c3ccc(OC4(C(=O)O)CC4)cc3)cc2)c1NC(=O)O[C@H](C)c1ccccc1 [IT513] | 50 to 500 | < 50
C[C@@H](OC(=O)Nc1c(-c2cc3sc(-c4cc(Cl)c(C5(C(=O)O)CC5)cc4F)cc3s2)nnn1C)c1ccccc1 [IT285] | 50 to 500 | < 50
C[C@@H](OC(=O)Nc1c(-c2ccc(-c3cc(F)c(OC4(C(=O)O)CC4)c(F)c3)cc2)oc2ccccc12)c1ccccc1 [IT491] | > 500 | 50 to 500
C[C@@H](OC(=O)Nc1c(-c2cc3sc(-c4ccc(CC(=O)O)cc4)cc3s2)nnn1C)c1ccccc1 [IT160] | 50 to 500 | 50 to 500
Cc1noc(-c2ccc(-c3ccc(Oc4cccc(F)c4C(=O)O)cc3)cc2)c1NC(=O)O[C@H](C)c1ccccc1 [IT454] | 50 to 500 | < 50
C[C@@H](OC(=O)Nc1c(-c2cc3sc(-c4ccc(CC(=O)O)cc4F)cc3s2)nnn1C)c1ccccc1 [IT159] | > 500 | 50 to 500
C[C@@H](OC(=O)Nc1c(-c2ccc(-c3ccc(OC4(C(=O)O)CC4)c(F)c3)cc2)oc2ccccc12)c1ccccc1 [IT492] | > 500 | 50 to 500
C[C@@H](OC(=O)Nc1c(-c2cc3sc(-c4cc(Cl)c(C5(C(=O)O)CC5)cc4F)cc3s2)cnn1C)c1ccccc1 [IT284] | 50 to 500 | 50 to 500
C[C@@H](OC(=O)Nc1c(-c2cc3sc(-c4ccc(C5(C(=O)O)CC5)cc4Cl)cc3s2)cnn1C)c1ccccc1 [IT389] | 50 to 500 | < 50
C[C@@H](OC(=O)Nc1c(-c2cc3sc(-c4ccc(C5(C(=O)O)CC5)c(Cl)c4)cc3s2)nnn1C)c1ccccc1 [IT266] | 50 to 500 | < 50
Cc1nnn(-c2cc(F)c(-c3cc4sc(C5(C(=O)O)CC5)cc4s3)cc2F)c1NC(=O)O[C@H](C)c1ccccc1 [IT067] | > 500 | 
Cc1noc(-c2ccc(-c3ccc4c(c3)NC(=O)CC4C(=O)O)cc2)c1NC(=O)O[C@H](C)c1ccccc1 (some centres unmarked) [IT011] | > 500 | 
Cc1noc(C#Cc2ccc3cc(CC4(C(=O)O)CC4)ccc3c2)c1NC(=O)O[C@H](C)c1ccccc1 [IT065] | > 500 | 
C[C@@H](OC(=O)Nc1c(-c2ccc(-c3cc4sc(C5(C(=O)O)CC5)cc4s3)cc2)nnn1C)c1ccccc1 [IT050] | 50 to 500 | 
CC(C)OC(=O)C1(c2cc3sc(C#Cc4cnn(C)c4NC(=O)O[C@H](C)c4ccccc4)cc3s2)CC1 [IT086] | > 500 | 
C[C@@H](OC(=O)Nc1c(-c2ccc(-c3ccc(C4(C(=O)O)CC4)cc3)cc2)nc2ncccn12)c1ccccc1 [IT043] | 50 to 500 | 

Structure (SMILES) | EC50 (LPA1) [nM] | EC50 (LPA/S1P GPCR of interest) [nM]
COCCOC(=O)C1(c2cc3sc(C#Cc4cnn(C)c4NC(=O)O[C@H](C)c4ccccc4)cc3s2)CC1 [IT084] | 50 to 500 | 
C[C@@H](OC(=O)Nc1c(-c2ccc(-c3ccc(C4(C(=O)O)CC4)cc3)cc2)nc2cnccn12)c1ccccc1 [IT032] | 50 to 500 | 
Cc1noc(-c2ccc(-c3ccc4c(c3)CCCC4C(=O)O)cc2)c1NC(=O)O[C@H](C)c1ccccc1 (mixture of isomers) [IT039] | > 500 | 
Cc1nsc(-c2cc(F)c(-c3ccc(C4(C(=O)O)CCOCC4)cc3)cc2F)c1NC(=O)O[C@H](C)c1ccccc1 [IT042] | 50 to 500 | 
C[C@@H](OC(=O)Nc1c(C#Cc2ccc3cc(C4(C(=O)O)CC4)ccc3c2)cnn1C)c1ccccc1 [IT014] | 50 to 500 | 
C[C@@H](OC(=O)Nc1c(-c2cc(F)c(-c3ccc(C4(C(=O)O)CC4)cc3)cc2F)nn2ccccc12)c1ccccc1 [IT049] | 50 to 500 | 
C[C@@H](OC(=O)Nc1c(-c2cc(F)c(-c3cc4sc(C5(C(=O)O)CC5)cc4s3)cc2F)nnn1C)c1ccccc1 [IT071] | 50 to 500 | 
C[C@@H](OC(=O)N(C)c1c(C#Cc2cc3sc(C4(C(=O)O)CC4)cc3s2)cnn1C)c1ccccc1 [IT097] | > 500 | 
C[C@@H](OC(=O)Nc1c(C#Cc2cc3sc(C4(C(=O)O)CC4)cc3s2)oc2ccccc12)c1ccccc1 [IT074] | > 500 | 
C[C@@H](OC(=O)Nc1c(C#Cc2cc3sc(C4(C(=O)O)CC4)cc3s2)nnn1C)c1ccccc1 [IT069] | 50 to 500 | 
C[C@@H](OC(=O)Nc1c(-c2ccc(-c3cc4sc(C5(C(=O)O)CC5)cc4s3)cc2)cnn1C)c1ccccc1 [IT056] | 50 to 500 | 
C[C@@H](OC(=O)Nc1c(C#Cc2ccc3cc(C4(C(=O)O)CC4)ccc3c2)cnn1C1CC1)c1ccccc1 [IT015] | 50 to 500 | 
C[C@@H](OC(=O)Nc1c(C#Cc2ccc3cc(C4(C(=O)O)CC4)ccc3c2)sc2ncccc12)c1ccccc1 [IT035] | 50 to 500 | 
C[C@@H](OC(=O)Nc1c(-c2cc(F)c(-c3ccc(C4(C(=O)O)CC4)cc3)cc2F)nn2ncccc12)c1ccccc1 [IT061] | 50 to 500 | 
CCOC(=O)C1(c2cc3sc(C#Cc4cnn(C)c4NC(=O)O[C@H](C)c4ccccc4)cc3s2)CC1 [IT085] | > 500 | 
Cc1noc(C#Cc2ccc3cc(C4(CC(=O)O)CC4)ccc3c2)c1NC(=O)O[C@H](C)c1ccccc1 [IT003] | 50 to 500 | 
CCn1ncc(C#Cc2ccc3cc(C4(C(=O)O)CC4)ccc3c2)c1NC(=O)O[C@H](C)c1ccccc1 [IT016] | 50 to 500 | 
C[C@@H](OC(=O)Nc1c(C#Cc2ccc3cc(C4(C(=O)O)CC4)ccc3c2)nnn1C)c1ccccc1 [IT064] | 50 to 500 | 
Cc1nsc(-c2ccc(-c3cc4sc(C5(C(=O)O)CC5)cc4s3)cc2)c1NC(=O)O[C@H](C)c1ccccc1 [IT046] | 50 to 500 | 
Cc1nsc(C#Cc2cc3sc(C4(C(=O)O)CC4)cc3s2)c1NC(=O)O[C@H](C)c1ccccc1 [IT034] | 50 to 500 | 
Cc1noc(C#Cc2cc3sc(C4(C(=O)O)CC4)cc3s2)c1NC(=O)OCc1ccccc1 [IT048] | 50 to 500 | 

Structure (SMILES) | EC50 (LPA1) [nM] | EC50 (LPA/S1P GPCR of interest) [nM]
C[C@@H](OC(=O)Nc1c(-c2ccc(-c3ccc(C4(C(=O)O)CC4)cc3)cc2)sc2ncccc12)c1ccccc1 [IT031] | 50 to 500 | 
C[C@@H](OC(=O)Nc1c(-c2ccc3cc(C#CC4(C(=O)O)CC4)ccc3c2)nnn1C)c1ccccc1 [IT146] | 50 to 500 | 
C[C@@H](OC(=O)Nc1c(CCc2cc3sc(C4(C(=O)O)CC4)cc3s2)cnn1C)c1ccccc1 [IT099] | > 500 | 
C[C@@H](OC(=O)Nc1c(C2CCC(c3ccc(C4(C(=O)O)CC4)cc3)CC2)cnn1C)c1ccccc1 (some centres unmarked) [IT066] | > 500 | 
C[C@@H](OC(=O)Nc1c(-c2cc(F)c(-c3ccc(C4(C(=O)O)CCOCC4)cc3)cc2F)cnn1C)c1ccccc1 [IT044] | 50 to 500 | 
Cc1nsc(-c2cc3sc(-c4ccc5[nH]cc(CC(=O)O)c5c4)cc3s2)c1NC(=O)O[C@H](C)c1ccccc1 [IT283] |  | > 500
Cc1cc(-c2cc3sc(-c4nnn(C)c4NC(=O)O[C@H](C)c4ccccc4)cc3s2)c(F)cc1C1(C(=O)O)CC1 [IT340] |  | 50 to 500
Cc1noc(-c2ccc(-c3ccc(OC(C)C(=O)O)cc3)cc2)c1NC(=O)O[C@H](C)c1ccccc1 (single isomer, unassigned) [IT238] |  | 50 to 500
Cc1nsc(-c2cc3sc(-c4ccc(CC(=O)O)c(F)c4F)cc3s2)c1NC(=O)O[C@H](C)c1ccccc1 [IT265] |  | 50 to 500
Cc1nsc(-c2cc3sc(-c4ccc(C5(C(=O)O)CC5)c(F)c4)cc3s2)c1NC(=O)O[C@H](C)c1ccccc1 [IT297] |  | < 50
C[C@@H](OC(=O)Nc1c(-c2cc(F)c(-c3ccc(C4(C(=O)O)CC4)cc3)cc2F)oc2ccccc12)c1ccccc1 [IT075] | 50 to 500 | 
C[C@@H](OC(=O)Nc1c(-c2cc3sc(-c4ccc(CC(=O)O)c(F)c4F)cc3s2)cnn1C)c1ccccc1 [IT211] |  | 50 to 500
C[C@@H](OC(=O)Nc1c(-c2ccc(-c3ccc(C4(C(=O)O)CC4)cc3)cc2)nn2cccnc12)c1ccccc1 [IT052] | > 500 | 
C[C@@H](OC(=O)Nc1c(C#Cc2cc3sc(C4(C(=O)OCC(=O)N(C)C)CC4)cc3s2)cnn1C)c1ccccc1 [IT090] | 50 to 500 | 
C[C@@H](OC(=O)Nc1c(-c2cc3sc(-c4ccc5[nH]cc(CC(=O)O)c5c4)cc3s2)nnn1C)c1ccccc1 [IT298] |  | 50 to 500
Cc1noc(-c2ccc(-c3ccc(Oc4cccc(C(=O)O)c4)cc3)cc2)c1NC(=O)O[C@H](C)c1ccccc1 [IT356] |  | 50 to 500
Cc1nsc(-c2ccc(-c3ccc(C4(C(=O)O)CC4)s3)cc2)c1NC(=O)O[C@H](C)c1ccccc1 [IT237] |  | 50 to 500
COc1ccccc1OC(=O)C1(c2cc3sc(C#Cc4cnn(C)c4NC(=O)O[C@H](C)c4ccccc4)cc3s2)CC1 [IT088] | 50 to 500 | 
C[C@@H](OC(=O)Nc1c(-c2cc3sc(-c4ccc(CC(=O)O)cc4OC(F)(F)F)cc3s2)nnn1C)c1ccccc1 [IT416] |  | > 500
C[C@@H](OC(=O)Nc1c(-c2ccc(-c3ncc(C4(C(=O)O)CC4)s3)cc2)nnn1C)c1ccccc1 [IT239] |  | > 500

— patent US20140213538A1, “LYSOPHOSPHATIDIC ACID RECEPTOR ANTAGONISTS” (InterMune, Inc., priority 2013, published 2014)
